According to PMC9506414, “Novel 2,6,9-Trisubstituted Purines as Potent CDK Inhibitors Alleviating Trastuzumab-Resistance of HER2-Positive Breast Cancers” (Pharmaceuticals, 2022):

Assays:
PKAC-alpha = test: Kinome-wide inhibition profiling; assay type: biochemical, human; conditions: 10 μM
Protocol: (§1) In vitro CDK12/cyclinK assays for all compounds and in vitro kinome-wide inhibition profiling of 30d at 10 μM were performed by a CRO company (Reaction Biology Corp., San Diego, CA, USA).

TTBK1 = biological target: T1, TTBK1 (Homo sapiens, UniProt Q5TCY1); test: Kinome-wide inhibition profiling; assay type: biochemical
T1 construct: purchased Reaction Biology Corp
Protocol: as §1

VRK1 = biological target: T2, VRK1 (Homo sapiens, UniProt Q99986); test: Kinome-wide inhibition profiling; assay type: biochemical
T2 construct: purchased Reaction Biology Corp
T2 sequence (Q99986 whole entry): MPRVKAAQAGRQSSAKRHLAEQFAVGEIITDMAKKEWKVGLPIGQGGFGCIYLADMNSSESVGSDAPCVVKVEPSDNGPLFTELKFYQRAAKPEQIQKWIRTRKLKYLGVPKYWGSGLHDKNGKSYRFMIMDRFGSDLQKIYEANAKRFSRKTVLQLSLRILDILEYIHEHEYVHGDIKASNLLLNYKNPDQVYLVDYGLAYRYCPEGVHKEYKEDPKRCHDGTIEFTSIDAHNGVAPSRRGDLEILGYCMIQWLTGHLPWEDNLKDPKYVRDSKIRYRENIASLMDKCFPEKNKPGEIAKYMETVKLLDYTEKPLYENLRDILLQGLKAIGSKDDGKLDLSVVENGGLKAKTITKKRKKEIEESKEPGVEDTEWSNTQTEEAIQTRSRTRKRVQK
Protocol: as §1

MUSK = biological target: T3, MUSK (Homo sapiens, UniProt O15146); test: Kinome-wide inhibition profiling; assay type: biochemical
T3 construct: purchased Reaction Biology Corp
Protocol: as §1

CDK4/cyclinD3 = biological target: T4, CDK4/cyclinD3 (Homo sapiens, UniProt P11802); test: Kinome-wide inhibition profiling; assay type: biochemical
T4 construct: purchased Reaction Biology Corp
T4 sequence (P11802 whole entry): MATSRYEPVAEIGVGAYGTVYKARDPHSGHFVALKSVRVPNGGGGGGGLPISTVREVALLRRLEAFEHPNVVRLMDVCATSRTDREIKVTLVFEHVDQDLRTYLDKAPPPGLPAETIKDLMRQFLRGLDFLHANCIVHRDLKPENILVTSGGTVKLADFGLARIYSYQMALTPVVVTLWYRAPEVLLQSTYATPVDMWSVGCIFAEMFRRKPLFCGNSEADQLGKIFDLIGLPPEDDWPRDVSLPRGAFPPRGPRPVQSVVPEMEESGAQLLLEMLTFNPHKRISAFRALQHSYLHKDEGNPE
T4 sequence (P30281 whole entry partner): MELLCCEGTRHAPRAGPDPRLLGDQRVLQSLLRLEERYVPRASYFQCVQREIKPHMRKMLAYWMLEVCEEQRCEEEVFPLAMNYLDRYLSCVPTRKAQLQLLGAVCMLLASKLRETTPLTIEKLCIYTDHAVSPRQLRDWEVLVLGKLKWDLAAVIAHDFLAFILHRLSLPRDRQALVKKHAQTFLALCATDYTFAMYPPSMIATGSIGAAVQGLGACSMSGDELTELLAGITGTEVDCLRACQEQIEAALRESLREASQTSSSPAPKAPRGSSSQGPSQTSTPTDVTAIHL
Protocol: as §1

MKK4 = biological target: T5, MKK4 (Homo sapiens, UniProt P45985); test: Kinome-wide inhibition profiling; assay type: biochemical
T5 construct: purchased Reaction Biology Corp
T5 sequence (P45985 whole entry): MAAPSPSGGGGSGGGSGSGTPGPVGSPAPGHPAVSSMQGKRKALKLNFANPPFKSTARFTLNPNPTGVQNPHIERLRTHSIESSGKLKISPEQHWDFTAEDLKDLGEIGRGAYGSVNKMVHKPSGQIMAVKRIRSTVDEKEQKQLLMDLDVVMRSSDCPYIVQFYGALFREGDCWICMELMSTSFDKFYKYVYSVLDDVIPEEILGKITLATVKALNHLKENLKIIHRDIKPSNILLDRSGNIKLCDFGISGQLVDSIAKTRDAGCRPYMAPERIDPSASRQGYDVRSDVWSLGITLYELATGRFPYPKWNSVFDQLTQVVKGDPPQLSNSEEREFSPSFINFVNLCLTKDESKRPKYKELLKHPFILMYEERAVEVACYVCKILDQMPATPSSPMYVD
Protocol: as §1

Haspin = biological target: T6, Haspin (Homo sapiens, UniProt Q8TF76); test: Kinome-wide inhibition profiling; assay type: biochemical
T6 construct: purchased Reaction Biology Corp
Protocol: as §1

JAK3 = biological target: T7, JAK3 (Homo sapiens, UniProt P52333); test: Kinome-wide inhibition profiling; assay type: biochemical
T7 construct: purchased Reaction Biology Corp
Protocol: as §1

BLK = biological target: T8, BLK (Homo sapiens, UniProt P51451); test: Kinome-wide inhibition profiling; assay type: biochemical
T8 construct: purchased Reaction Biology Corp
T8 sequence (P51451 whole entry): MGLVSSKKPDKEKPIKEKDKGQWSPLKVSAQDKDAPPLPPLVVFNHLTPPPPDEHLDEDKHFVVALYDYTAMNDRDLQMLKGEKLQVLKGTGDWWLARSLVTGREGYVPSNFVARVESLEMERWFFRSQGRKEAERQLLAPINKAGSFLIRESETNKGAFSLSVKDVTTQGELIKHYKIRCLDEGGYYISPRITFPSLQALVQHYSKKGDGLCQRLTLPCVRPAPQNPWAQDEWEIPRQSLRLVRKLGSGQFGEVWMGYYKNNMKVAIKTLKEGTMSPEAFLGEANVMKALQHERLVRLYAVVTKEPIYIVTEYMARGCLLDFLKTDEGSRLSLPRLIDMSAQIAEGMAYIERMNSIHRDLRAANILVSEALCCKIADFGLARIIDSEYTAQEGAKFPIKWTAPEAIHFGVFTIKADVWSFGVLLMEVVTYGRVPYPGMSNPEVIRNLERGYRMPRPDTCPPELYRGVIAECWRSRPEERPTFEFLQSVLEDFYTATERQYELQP
Protocol: as §1

PRKD3 = biological target: T9, PRKD3 (Homo sapiens, UniProt O94806); test: Kinome-wide inhibition profiling; assay type: biochemical
T9 construct: purchased Reaction Biology Corp
Protocol: as §1

ARK5 = biological target: T10, ARK5 (Homo sapiens, UniProt O60285); test: Kinome-wide inhibition profiling; assay type: biochemical
T10 construct: purchased Reaction Biology Corp
Protocol: as §1

AurkA = biological target: T11, AurkA (Homo sapiens, UniProt O14965); test: Kinome-wide inhibition profiling; assay type: biochemical
T11 construct: purchased Reaction Biology Corp
Protocol: as §1

TNIK = biological target: T12, TNIK (Homo sapiens, UniProt Q9UKE5); test: Kinome-wide inhibition profiling; assay type: biochemical
T12 construct: purchased Reaction Biology Corp
Protocol: as §1

HIPK1 = biological target: T13, HIPK1 (Homo sapiens, UniProt Q86Z02); test: Kinome-wide inhibition profiling; assay type: biochemical
T13 construct: purchased Reaction Biology Corp
Protocol: as §1

PFTK1 = biological target: T14, PFTK1 (Homo sapiens, UniProt O94921); test: Kinome-wide inhibition profiling; assay type: biochemical
T14 construct: purchased Reaction Biology Corp
Protocol: as §1

FGFR4 = biological target: T15, FGFR4 (Homo sapiens, UniProt P22455); test: Kinome-wide inhibition profiling; assay type: biochemical
T15 construct: purchased Reaction Biology Corp
Protocol: as §1

MASTL = biological target: T16, MASTL (Homo sapiens, UniProt Q96GX5); test: Kinome-wide inhibition profiling; assay type: biochemical
T16 construct: purchased Reaction Biology Corp
Protocol: as §1

ABL1 = biological target: T17, ABL1 (Homo sapiens, UniProt P00519); test: Kinome-wide inhibition profiling; assay type: biochemical
T17 construct: purchased Reaction Biology Corp
Protocol: as §1

SBK1 = biological target: T18, SBK1 (Homo sapiens, UniProt Q52WX2); test: Kinome-wide inhibition profiling; assay type: biochemical
T18 construct: purchased Reaction Biology Corp
Protocol: as §1

AurkC = biological target: T19, AurkC (Homo sapiens, UniProt Q9UQB9); test: Kinome-wide inhibition profiling; assay type: biochemical
T19 construct: purchased Reaction Biology Corp
Protocol: as §1

CAMK2d = biological target: T20, CAMK2d (Homo sapiens, UniProt Q13557); test: Kinome-wide inhibition profiling; assay type: biochemical
T20 construct: purchased Reaction Biology Corp
T20 sequence (Q13557 whole entry): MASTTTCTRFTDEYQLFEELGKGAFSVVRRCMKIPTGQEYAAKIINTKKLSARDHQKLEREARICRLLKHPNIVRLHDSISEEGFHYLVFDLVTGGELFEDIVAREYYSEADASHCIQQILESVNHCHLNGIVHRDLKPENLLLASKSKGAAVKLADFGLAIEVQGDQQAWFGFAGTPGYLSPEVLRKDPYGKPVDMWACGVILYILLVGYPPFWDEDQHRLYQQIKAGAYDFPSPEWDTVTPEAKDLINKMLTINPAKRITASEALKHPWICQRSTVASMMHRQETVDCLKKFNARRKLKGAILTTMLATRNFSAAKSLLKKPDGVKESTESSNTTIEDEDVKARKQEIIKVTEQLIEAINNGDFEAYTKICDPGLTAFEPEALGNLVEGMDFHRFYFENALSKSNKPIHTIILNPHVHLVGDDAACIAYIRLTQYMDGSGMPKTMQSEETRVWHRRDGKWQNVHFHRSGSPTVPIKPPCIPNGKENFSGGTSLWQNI
Protocol: as §1

ERK1 = biological target: T21, ERK1 (Homo sapiens, UniProt P27361); test: Kinome-wide inhibition profiling; assay type: biochemical
T21 construct: purchased Reaction Biology Corp
Protocol: as §1

LYN B = biological target: T22, LYN B (Homo sapiens, UniProt P07948); test: Kinome-wide inhibition profiling; assay type: biochemical
T22 construct: purchased Reaction Biology Corp
Protocol: as §1

ERK5 = biological target: T23, ERK5 (Homo sapiens, UniProt Q13164); test: Kinome-wide inhibition profiling; assay type: biochemical
T23 construct: purchased Reaction Biology Corp
Protocol: as §1

IGF1R = biological target: T24, IGF1R (Homo sapiens, UniProt P08069); test: Kinome-wide inhibition profiling; assay type: biochemical
T24 construct: purchased Reaction Biology Corp
Protocol: as §1

DAPK2 = biological target: T25, DAPK2 (Homo sapiens, UniProt Q9UIK4); test: Kinome-wide inhibition profiling; assay type: biochemical
T25 construct: purchased Reaction Biology Corp
Protocol: as §1

CSNK1E = biological target: T26, CSNK1E (Homo sapiens, UniProt P49674); test: Kinome-wide inhibition profiling; assay type: biochemical
T26 construct: purchased Reaction Biology Corp
Protocol: as §1

TGFBR1 = biological target: T27, TGFBR1 (Homo sapiens, UniProt P36897); test: Kinome-wide inhibition profiling; assay type: biochemical
T27 construct: purchased Reaction Biology Corp
T27 sequence (P36897 34-503): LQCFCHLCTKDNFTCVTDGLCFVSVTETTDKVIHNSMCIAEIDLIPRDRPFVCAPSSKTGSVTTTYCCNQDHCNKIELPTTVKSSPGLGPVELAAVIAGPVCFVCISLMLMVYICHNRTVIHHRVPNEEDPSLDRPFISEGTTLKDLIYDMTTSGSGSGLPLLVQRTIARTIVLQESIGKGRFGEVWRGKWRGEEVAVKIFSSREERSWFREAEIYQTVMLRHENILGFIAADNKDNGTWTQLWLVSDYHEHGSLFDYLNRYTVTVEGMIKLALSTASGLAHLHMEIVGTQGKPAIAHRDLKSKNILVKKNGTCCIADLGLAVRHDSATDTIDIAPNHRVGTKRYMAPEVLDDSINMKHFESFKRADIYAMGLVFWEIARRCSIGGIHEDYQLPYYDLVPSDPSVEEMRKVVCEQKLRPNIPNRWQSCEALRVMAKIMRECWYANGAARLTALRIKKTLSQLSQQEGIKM
Protocol: as §1

CDK5 = test system: CDK5; design: method as in HMS LINCS database; conditions: 10 μM, ref HMS LINCS database; cited from earlier work
TLK1 = biological target: T28, TLK1 (Homo sapiens, UniProt Q9UKI8); design: method as in HMS LINCS database; conditions: 10 μM, ref HMS LINCS database; cited from earlier work
T28 construct: purchased Reaction Biology Corp

CDK3 = test system: CDK3; design: method as in HMS LINCS database; conditions: 10 μM, ref HMS LINCS database; cited from earlier work
CDKL5 = test system: CDKL5; design: method as in HMS LINCS database; conditions: 10 μM, ref HMS LINCS database; cited from earlier work
HIPK3 = biological target: T29, HIPK3 (Homo sapiens, UniProt Q9H422); design: method as in HMS LINCS database; conditions: 10 μM, ref HMS LINCS database; cited from earlier work
T29 construct: purchased Reaction Biology Corp

CDK7 = test system: CDK7; design: method as in HMS LINCS database; conditions: 10 μM, ref HMS LINCS database; cited from earlier work
TAOK3 = biological target: T30, TAOK3 (Homo sapiens, UniProt Q9H2K8); design: method as in HMS LINCS database; conditions: 10 μM, ref HMS LINCS database; cited from earlier work
T30 construct: purchased Reaction Biology Corp

YSK1 = biological target: T31, YSK1 (Homo sapiens, UniProt O00506); design: method as in HMS LINCS database; conditions: 10 μM, ref HMS LINCS database; cited from earlier work
T31 construct: purchased Reaction Biology Corp
T31 sequence (O00506 whole entry): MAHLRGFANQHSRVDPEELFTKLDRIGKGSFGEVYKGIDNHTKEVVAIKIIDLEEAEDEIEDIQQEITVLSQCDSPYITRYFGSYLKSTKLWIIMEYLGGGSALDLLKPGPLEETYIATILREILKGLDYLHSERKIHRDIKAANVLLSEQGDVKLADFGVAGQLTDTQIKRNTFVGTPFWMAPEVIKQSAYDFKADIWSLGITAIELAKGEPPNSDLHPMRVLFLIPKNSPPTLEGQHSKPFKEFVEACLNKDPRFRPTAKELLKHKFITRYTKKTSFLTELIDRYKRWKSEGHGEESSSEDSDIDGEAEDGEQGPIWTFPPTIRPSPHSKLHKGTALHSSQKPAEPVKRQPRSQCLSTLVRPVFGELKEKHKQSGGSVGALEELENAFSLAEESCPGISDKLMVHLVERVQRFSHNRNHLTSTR

TLK2 = biological target: T32, TLK2 (Homo sapiens, UniProt Q86UE8); design: method as in HMS LINCS database; conditions: 10 μM, ref HMS LINCS database; cited from earlier work
T32 construct: purchased Reaction Biology Corp
T32 sequence (Q86UE8 whole entry): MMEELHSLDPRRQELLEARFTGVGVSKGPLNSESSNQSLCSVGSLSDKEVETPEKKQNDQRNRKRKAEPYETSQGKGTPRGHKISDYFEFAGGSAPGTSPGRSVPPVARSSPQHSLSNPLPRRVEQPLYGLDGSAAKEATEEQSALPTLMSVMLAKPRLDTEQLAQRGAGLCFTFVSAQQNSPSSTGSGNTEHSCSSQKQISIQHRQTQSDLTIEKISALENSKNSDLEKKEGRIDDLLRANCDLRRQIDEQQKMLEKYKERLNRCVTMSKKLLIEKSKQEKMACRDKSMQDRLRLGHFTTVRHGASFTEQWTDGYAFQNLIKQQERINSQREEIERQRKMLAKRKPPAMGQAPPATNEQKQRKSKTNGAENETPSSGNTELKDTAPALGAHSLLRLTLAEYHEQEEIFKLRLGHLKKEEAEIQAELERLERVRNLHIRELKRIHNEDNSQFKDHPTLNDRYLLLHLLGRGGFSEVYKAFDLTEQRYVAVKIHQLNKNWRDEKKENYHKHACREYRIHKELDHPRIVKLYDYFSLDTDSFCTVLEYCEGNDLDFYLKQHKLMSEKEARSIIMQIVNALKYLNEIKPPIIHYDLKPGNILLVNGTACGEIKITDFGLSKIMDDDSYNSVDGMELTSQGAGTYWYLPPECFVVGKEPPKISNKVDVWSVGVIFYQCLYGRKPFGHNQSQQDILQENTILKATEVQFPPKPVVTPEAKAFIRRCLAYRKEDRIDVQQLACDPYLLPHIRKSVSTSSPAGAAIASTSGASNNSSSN

STK36 = test system: STK36; design: method as in HMS LINCS database; conditions: 10 μM, ref HMS LINCS database; cited from earlier work
HIPK2 = biological target: T33, HIPK2 (Homo sapiens, UniProt Q9H2X6); design: method as in HMS LINCS database; conditions: 10 μM, ref HMS LINCS database; cited from earlier work
T33 construct: purchased Reaction Biology Corp

ICK = biological target: T34, ICK (Homo sapiens, UniProt Q9UPZ9); design: method as in HMS LINCS database; conditions: 10 μM, ref HMS LINCS database; cited from earlier work
T34 construct: purchased Reaction Biology Corp
T34 sequence (Q9UPZ9 whole entry): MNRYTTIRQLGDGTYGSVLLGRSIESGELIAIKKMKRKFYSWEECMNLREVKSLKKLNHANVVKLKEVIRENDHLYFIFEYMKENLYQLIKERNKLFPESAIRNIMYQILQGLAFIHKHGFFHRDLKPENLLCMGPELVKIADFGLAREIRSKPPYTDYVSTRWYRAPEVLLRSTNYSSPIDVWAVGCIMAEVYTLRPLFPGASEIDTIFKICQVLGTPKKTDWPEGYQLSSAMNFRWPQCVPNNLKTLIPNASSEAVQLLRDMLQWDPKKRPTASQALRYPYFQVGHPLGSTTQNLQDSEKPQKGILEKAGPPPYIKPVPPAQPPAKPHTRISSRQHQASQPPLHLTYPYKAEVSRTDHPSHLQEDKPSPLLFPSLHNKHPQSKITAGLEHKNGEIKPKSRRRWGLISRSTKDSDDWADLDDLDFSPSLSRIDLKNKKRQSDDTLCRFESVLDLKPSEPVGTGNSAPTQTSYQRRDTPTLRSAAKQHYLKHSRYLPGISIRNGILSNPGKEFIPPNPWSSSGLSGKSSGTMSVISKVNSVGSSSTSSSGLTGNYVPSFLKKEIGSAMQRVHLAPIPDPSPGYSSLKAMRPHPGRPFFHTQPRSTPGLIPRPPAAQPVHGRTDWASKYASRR

CDKL1 = test system: CDKL1; design: method as in HMS LINCS database; conditions: 10 μM, ref HMS LINCS database; cited from earlier work
CDK4-cyclinD1 = test system: CDK4-cyclinD1; design: method as in HMS LINCS database; conditions: 10 μM, ref HMS LINCS database; cited from earlier work

CCn1cnc2c(NCc3ccc(-c4ccccn4)nc3)nc(-c3ccc(N)nc3)nc21 [Compound 30d, N-([2,2′-Bipyridin]-5-ylmethyl)-2-(6-aminopyridin-3-yl)-9-ethyl-9H-purin-6-amine]
% remaining activity (PKAC-alpha): 62.4% | remaining activity at 10 µM (TTBK1): 108% | remaining activity at 10 µM (VRK1): 87.3% | remaining activity at 10 µM (MUSK): 10.2% | remaining activity at 10 µM (CDK4/cyclinD3): 28.6% | remaining activity at 10 µM (MKK4): 96.4% | remaining activity at 10 µM (Haspin): 79.4% | remaining activity at 10 µM (JAK3): 99.7% | remaining activity at 10 µM (BLK): 66.8% | remaining activity at 10 µM (PRKD3): 54.3% | remaining activity at 10 µM (ARK5): 20.8% | remaining activity at 10 µM (AurkA): 33.4% | remaining activity at 10 µM (TNIK): 69% | remaining activity at 10 µM (HIPK1): 93% | remaining activity at 10 µM (PFTK1): 14% | remaining activity at 10 µM (FGFR4): 87.4% | remaining activity at 10 µM (MASTL): 103% | remaining activity at 10 µM (ABL1): 61.2% | remaining activity at 10 µM (SBK1): 94.5% | remaining activity at 10 µM (AurkC): 25.5% | remaining activity at 10 µM (CAMK2d): 61.7% | remaining activity at 10 µM (ERK1): 9.4% | remaining activity at 10 µM (LYN B): 54.4% | remaining activity at 10 µM (ERK5): 97.7% | remaining activity at 10 µM (IGF1R): 58% | remaining activity at 10 µM (DAPK2): 85.7% | remaining activity at 10 µM (CSNK1E): 22.9% | remaining activity at 10 µM (TGFBR1): 112%

CCc1cnn2c(NCc3ccc[n+]([O-])c3)cc(N3CCCC[C@H]3CCO)nc12 [Dinaciclib]
% control (CDK5): 1.8% | % control (TLK1): 0.9% | % control (CDK3): 0.3% | % control (CDKL5): 1.6% | % control (HIPK3): 4.4% | % control (CDK7): 0.4% | % control (TAOK3): 3.8% | % control (YSK1): 9.2% | % control (TLK2): 0.5% | % control (STK36): 7.8% | % control (HIPK2): 3.6% | % control (ICK): 0.9% | % control (CDKL1): 9.1% | % control (CDK4-cyclinD1): 0.1%
